Data as given in patent publication US9408891B2, “Methods of using gelsolin to treat or prevent bacterial sepsis” (priority 2003, dated 2016).
“Also recorded” adds a separate entry of the source.

Columns and labels:
[1] = target: T1, gelsolin (Homo sapiens, UniProt P06396); conditions: Goetzl et al. 2000; cited from earlier work
[2] = system: actin-binding proteins; conditions: Yamamura et al., FEBS Lett. 1996; cited from earlier work
[3] = target: T1, gelsolin; assay: Actin severing activity of gelsolin (50 nM) with LTA or lysolipids; assay type: biochemical
Method: The tested gelsolin concentration was 50 nM; LTA ranged from 0-50 μM; Pyrene-F-actin was 0.3 μM. Recording changes in fluorescently-labeled (rhodamine B-labeled) gelsolin peptide PBP10 (10 μM), indicates a specific interaction between gelsolin and LTA.

[4] = system: LPS-binding protein (LBP); assay: Binding of 125I-LBP to gelsolin-coated wells
Method: To determine competition between gelsolin and LPS-binding proteins (LPB), a high affinity carrier for LPS, […]), washed and preincubated with different amount of recombinant human gelsolin (0-2 ng/well) in […] (0.5 mg/ml) containing RPMI. RPMI medium refers to Roswell Park Memorial Institute medium, typically used to culture human lymphoid cells. Then, 10 μl of ^125I-LPB (6×10^4 cpm) were added, and the plates were incubated for 90 minutes at 37° C., then washed six times with RPMI. After that, the bound radioactivity was measured.

[5] = system: endotoxemic C57BL/6 mice (25 mg/kg LPS E. coli 055:B5 i.p.); assay: Mortality study of mice challenged with lethal E. coli LPS and treated with GSN, BSA or saline; assay type: in vivo, mouse
Method: To study the effect on mortality, animals are injected i.p. with 25 mg/kg LPS (E. coli 055:B5, Sigma) and each mouse is randomly selected to receive one of the following three treatments: 1) GSN (containing: 8 mg of recombinant human plasma gelsolin (Biogen-IDEC, Inc) containing 1 mM Ca dissolved in 400 μl of 0.15 M NaCl (saline); or 2) BSA (containing: 8 mg of bovine albumin (Serologicals Proteins, Inc, Kankakee, Ill.) containing 1 mM Ca dissolved in 400 μl of saline, or 3) saline (containing only 400 μl saline). The GSN (gelsolin), BSA or saline solutions are administered subcutaneously at the dorsal surface of each animal immediately after LPS instillation, and then repeated at 24, 48, and 72 hours.
There are 9 mice in the saline group and 8 mice each in the GSN group and the BSA group. Animals are monitored frequently, and mortality is recorded and presented at an interval of days. Animal mortality study data are presented as Kaplan-Meier curves and log-rank test is used to analyze treatment impact on animal mortality. Ap-value less than 0.05 is considered significant.
To measure gelsolin in vivo, a nucleation assay for plasma gelsolin is performed as follows: the collected mouse plasma is diluted 1:5 in Buffer B (0.1 M KCI, 0.2 mM MgCl2, 1 mM EGTA (ethyleneglycol-bis(2-aminoethyl) N,N,N′,N′,-tetraacetic acid), 0.5 mM ATP, 0.5 mM β-mercaptoethanol, 10 mM Tris-HCl buffer, pH 7.4). From the diluted plasma sample, 5 μl is added to 280 μl Buffer B supplemented with 1.5 mm […] and 0.4 μM phallacidin in 6×50 mm borosilicate culture tubes. The actin polymerization reaction is initiated by adding 15 μl 20 μM pyrene-actin in Buffer A (0.5 mM ATP, 0.5 mM β-mercaptoethanol, 0.2 mM CaCl2 […] buffer, pH 7.4). Polymerization is monitored for 200 seconds in a spectrofluorimeter at excitation and emission wavelengths of 366 and 386 nm respectively. Gelsolin concentrations are estimated from a standard curve using recombinant human plasma gelsolin.

[6] = system: NF-κB translocation in rat primary astrocytes; assay: NF-κB translocation to the nucleus in astrocytes; assay type: cell-based; conditions: LPS preincubated with 1.8 μM gelsolin, 2 hour incubation
Method: Rat primary astrocytes were obtained from prenatal rats and maintained for 14 days in culture before use. Embryos (E17-E19) were removed by caesarian section from a Sprague-Dawley rat and the hippocampi were surgically removed. The tissue was digested in trypsin/DNAse at 37° C., centrifuged (1000×5 min) and filtered to derive suspensions from each pup. Cells were grown in an incubator at 37° C. and 5% CO2 in DMEM (Dulbecco's Modified Eagle's Medium; BioWhittaker/Cambrex BioScience, East Rutherford, N.J.), supplemented with Ham's F12 (Sigma-Aldrich, St. Louis, Mo.) and 5% fetal bovine serum (FBS) (Hyclone, Logan, Utah) for 7 days, followed by an additional 7 days in Neurobasal medium (Gibco, Grand Island, N.Y.) also supplemented with 5% FBS, 2 mM l-glutamine, 50 μg/ml streptomycin and 50 U/ml penicillin. In each experiment, the medium was changed to serum-free at 6-12 hours prior to addition of LPS, TNF-α, or gelsolin.
HAECs and astrocytes cultures were incubated for 10 minutes in medium containing 10 μg/ml LPS alone, or LPS that had been pre-incubated with 0.16 mg/ml of human gelsolin. Cultures were fixed with ice-cold methanol and immunostained for F-actin with fluorescein isothiocyanate (FITC)-labeled phalloidin (Molecular Probes, Eugene, Oreg.). In astrocyte cultures, NF-κB translocation was manipulated by a 2 hour incubation in serum-free medium containing one of the following: 10 ng/ml TNF-α, 10 μg/ml LPS alone, or LPS that had been preincubated with 0.16 mg/ml human gelsolin. Location of transcription factor nuclear factor-kappaB (NF-κB) was observed using a monoclonal antibody to NF-κB (Molecular Probes), and cell nuclei were detected by counter-staining with 4′, 6-diamidino-2-phenylindole dihydrochloride (DAPI) (Sigma).

[7] = system: rat primary astrocytes; assay: LPS-induced actin cytoskeleton disassembly, phalloidin staining, astrocytes; assay type: cell-based; conditions: 2 μM (10 μg/ml) LPS preincubated with 1.8 μM (0.16 mg/ml) gelsolin, 10 min, listed as plasma gelsolin
From the text: (§1) In light of the findings in the previous Examples, and using the materials prepared in above, the effect of the gelsolin binding by LPS was studied to determine the effect on cellular responses in vitro. Cell cultures of human aortic endothelial cells (HAEC) and rat primary astrocytes were used to evaluate the effect of LPS on actin. Both of these cell types have mCD14 (membrane bound C14) and TLR LPS receptors (Faure, et al., J. Biol. Chem. 275:11058-11063 (2000); Bsibsi, et al., J. Neuropathol. Exp. Neurol. 61:1013-1021 (2002); Bowman, et al., Glia 43:281-291 (2003)).
Rat primary astrocytes were obtained from prenatal rats and maintained for 14 days in culture before use. Embryos (E17-E19) were removed by caesarian section from a Sprague-Dawley rat and the hippocampi were surgically removed. The tissue was digested in trypsin/DNAse at 37° C., centrifuged (1000×5 min) and filtered to derive suspensions from each pup. […]
(§2) HAECs and astrocytes cultures were incubated for 10 minutes in medium containing 10 μg/ml LPS alone, or LPS that had been pre-incubated with 0.16 mg/ml of human gelsolin. […] Location of transcription factor nuclear factor-kappaB (NF-κB) was observed using a monoclonal antibody to NF-κB (Molecular Probes), and cell nuclei were detected by counter-staining with 4′, 6-diamidino-2-phenylindole dihydrochloride (DAPI) (Sigma).

[8] = system: binding of LPS-binding protein (LBP) to LPS; assay: Competition of gelsolin with 125I-LBP for LPS-coated wells (solid phase); conditions: nanomolar concentrations of gelsolin
Method: To determine competition between gelsolin and LPS-binding proteins (LPB), a high affinity carrier for LPS, the LPS-coated wells (1 nmole/per well of LPS Re-595 from Salmonella minnesota) were saturated by incubation (2 hours, 20° C.) with […] 2 mg/ml in RPMI), washed and preincubated with different amount of recombinant human gelsolin (0-2 ng/well) in […] (0.5 mg/ml) containing RPMI. RPMI medium refers to Roswell Park Memorial Institute medium, typically used to culture human lymphoid cells. Then, 10 μl of ^125I-LPB (6×10^4 cpm) were added, and the plates were incubated for 90 minutes at 37° C., then washed six times with RPMI. After that, the bound radioactivity was measured.

[9] = system: human aortic endothelial cells (HAEC); assay: LPS-induced actin cytoskeleton disassembly, phalloidin staining, endothelial cells; assay type: cell-based; conditions: 2 μM (10 μg/ml) LPS preincubated with 1.8 μM (0.16 mg/ml) gelsolin, 10 min, listed as plasma gelsolin
From the text: as §1
HAECs (primary human aortic endothelial cells) (ATCC, Rockville, Md. or Clonetics, San Diego, Calif.), will grow to confluence through passages 5-9 in endothelial cell growth medium supplemented with 2% fetal bovine serum, 10 μg/liter human recombinant epidermal growth factor, 1 mg/liter hydrocortisone, 50 μg/ml gentamicin, 50 ng/ml amphotericin-B, in a 37° C. humidified atmosphere of 95% air:5% C02.
as §2

[10] = system: human neutrophils / human aortic endothelial cells (HAEC); assay: Neutrophil adhesion to LTA-stimulated HAEC; assay type: cell-based; conditions: gelsolin 2 μM added along with LTA 10 μg/ml
From the text: To investigate whether gelsolin can prevent gram-positive bacterial inflammation, the effect of LTA-mediated activation of human neutrophils was examined. Neutrophils were selected because their adhesion to human aorta endothelial cells (HAEC) is a hallmark of inflammation.
Neutrophils were isolated from human blood using the endotoxin-free Lympholyte-poly kit (Cedarlane, Ontario, Canada). The isolated neutrophil cells were resuspended in RPMI media. […] To quantify the adhesion, the neutrophils were labeled with calcein-AM (5 μM for 30 minutes at 37° C.).

[11] = target: T2, recombinant human gelsolin (rhGLS) (Homo sapiens, UniProt P06396); assay: Actin filament severing activity of purified gelsolin (pyrene F-actin depolymerization); assay type: biochemical; conditions: molar basis comparison
T2 construct: purchased Biogen IDEC, Inc., Cambridge, Mass; host or cells: E. coli
T2 sequence (P06396 28-782): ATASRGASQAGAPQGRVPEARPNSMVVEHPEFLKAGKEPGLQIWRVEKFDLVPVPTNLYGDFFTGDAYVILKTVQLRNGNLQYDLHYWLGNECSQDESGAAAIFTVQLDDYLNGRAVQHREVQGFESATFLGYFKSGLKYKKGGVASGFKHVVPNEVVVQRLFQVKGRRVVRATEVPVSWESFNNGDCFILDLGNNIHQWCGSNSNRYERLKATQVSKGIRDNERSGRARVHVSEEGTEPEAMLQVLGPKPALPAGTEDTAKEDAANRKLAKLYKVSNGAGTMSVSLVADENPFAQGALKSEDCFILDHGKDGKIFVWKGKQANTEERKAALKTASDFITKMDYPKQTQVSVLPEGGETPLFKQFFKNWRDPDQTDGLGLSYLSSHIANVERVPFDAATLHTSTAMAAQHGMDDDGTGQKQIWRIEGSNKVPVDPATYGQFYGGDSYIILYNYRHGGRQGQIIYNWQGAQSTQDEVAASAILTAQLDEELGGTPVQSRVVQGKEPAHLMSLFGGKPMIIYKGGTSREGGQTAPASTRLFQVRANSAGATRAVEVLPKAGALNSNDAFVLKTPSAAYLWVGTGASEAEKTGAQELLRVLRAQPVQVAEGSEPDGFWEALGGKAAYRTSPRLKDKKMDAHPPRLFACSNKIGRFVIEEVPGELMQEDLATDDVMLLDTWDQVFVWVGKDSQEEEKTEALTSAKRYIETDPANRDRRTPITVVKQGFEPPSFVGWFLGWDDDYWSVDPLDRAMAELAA
Method: To determine gelsolin's severing activity, rates of fluorescence decrease were evaluated during depolymerization. Monomeric G-actin was prepared from an acetone powder of rabbit skeletal muscle according to previously published methods (Spudich et al., J. Biol. Chem […]). The non-polymerizing solution contained 2 mM TRIS, 0.2 mM CaCl2, 0.5 mM ATP (adenosine triphosphate), 0.2 mM DTT (dithiothreitol) pH 7.4. Actin was polymerized by adding 150 mM KCl and 2 mM MgCl2 to the G-actin solutions and incubating for 1 hour at room temperature.
For F-actin severing assays, in general, a small volume (typically 5 μl) of the gelsolin composition is added to a similar volume of pyrene-labeled F-actin at a concentration adjusted to provide an actin:gelsolin ratio of approximately 10:1 (typically 1 μM gelsolin and 10 μM actin). This mixture is the diluted to 0.5 μM in a larger volume of F-actin buffer, and the filament severing efficiency is calculated from the initial slope of the fluorescence change. This reflects the rate of depolymerization that, in turn, is proportional to the number of cuts made by gelsolin. The LPS/gelsolin reaction can be done under any ionic condition, and the addition to F-actin requires the presence of […] Ca^2+ to activate the gelsolin. […] The actin nucleation reaction is similar except that in the latter case, the gelsolin/LPS mixture is added to a more dilute solution of G-actin (typically, 1 or 2 μM) in low ionic strength buffer followed immediately by addition of 150 mM KCI and 2 mM MgCl2 to initiate polymerization.
As shown, recombinant human gelsolin (rhGLS) (FIG. 4A) and blood serum (FIG. 4B) severing activity was measured in 0.4 μM pyrene-labeled F-actin samples (polymerized with 50% pyrene-labeled G-actin), after adding gelsolin (16 nM)/serum (2.5 μl), or their combination with one of the following: LPS (from different species), PIP2 (phosphatidyl-inositol-4,5-bisphosphate), LPA (lysophosphatidic acid), lipid A (the LPS derivative lacking polysaccharide) or PS (phosphatidylserine). The fluorescence intensity of F-pyrene actin was then monitored for 10 minutes, and the severing activity was calculated based on decreasing fluorescence. Severing activity was determined from a decrease in rate of fluorescence during depolymerization, and the depolymerization rate was calculated from the slope of the early decrease in fluorescence.

[12] = target: T2, recombinant human gelsolin (rhGLS); assay: Change of gelsolin OD at 280 nm after adding lipids; assay type: binding; conditions: OD 280 nm
Method: (§3) Therefore, to determine changes of gelsolin OD at 280 nm, different amounts of LPS, LPA and PS were added to recombinant human gelsolin (rhGLS) solutions and OD emission spectra were recorded using spectrophotometer Genesys 6 (Thermo-Spectronic, USA).

[13] = target: T3, pyrene-labeled SEQ ID No:1 (gelsolin residues 160-169) (Homo sapiens, UniProt P06396); assay: Pyrene excimer fluorescence of pyrene-labeled SEQ ID No:1 after adding lipids; assay type: binding; conditions: 2 μM pyrene peptide
T3 construct: made in house; host or cells: solid phase peptide synthesis
Method: as §3
Interaction of LPS and gelsolin was examined using rhodamine B- and pyrene-labeled SEQ ID No:1 (QRLFQVKGRR). The effect of LPS on gelsolin was determined in terms of the rhodamine-B fluorescent changes of PBP10 peptide in the presence of different lipids (FIG. 1C); and the fluorescence emission spectra of pyrene-labeled SEQ ID No:1 (2 μM) in the presence of LPS from Escherichia coli (1.2 μM), PIP2 (0.82 μM) and LPA (0.82 μM) (FIG. 1D) The results using the pyrene-derivatized gelsolin peptide confirmed the LPS induced clustering of the peptide with resulting excimer fluorescence of the pyrene group, which was evident as a large increase in fluorescence emission at 480 nm.

T1 sequence (P06396 28-782): as above

CCCCCCCCCCCCC/C=C/[C@@H](O)[C@@H](N)COP(=O)(O)O [S1P, Sphingosine-1-phosphate]
binding of S1P by gelsolin [1]: did not bind
maximal dissociation [2]: 10%
inhibition of gelsolin at higher lipid concentrations ([3]; above 1 μM): abrupt drop-off of activity
inhibition of gelsolin by lysolipids ([3]; lipid below 1 μM): at least as strongly as lysophosphatidic acid (LPA); also recorded: also inhibit gelsolin; also recorded: as least as strongly as LPA does

gelsolin
direct binding of 125I-LBP to gelsolin-coated surfaces [4]: did not bind to gelsolin-coated surfaces; also recorded: does not interact directly with the LBP; also recorded: does not bind to gelsolin-coated surfaces
survival compared to saline or BSA controls ([5]; 8 mg s.c. immediately after LPS and at 24, 48, 72 hours, listed as plasma gelsolin): rescues the endotoxemic mice; also recorded: markedly improved survival
condition of surviving mice ([5]; Day 7 / after 1 week): complete recovery
plasma gelsolin level restored in LPS-treated animals ([5]; s.c. administration): 200 µg/mL
blocking of LPS-induced NF-κB translocation [6]: completely blocked; also recorded: blocked LPS-induced translocation; also recorded: blocked by pre-incubation with gelsolin
effect of gelsolin-preincubated LPS on actin cytoskeleton [7]: no discernable effect on the actin cytoskeletons; also recorded: prevented LPS-induced actin cytoskeleton disassembly
inhibition of 125I-LBP binding to LPS coated wells [8]: 69±6%
effect of gelsolin-preincubated LPS on actin cytoskeleton [9]: no discernable effect on the actin cytoskeletons; also recorded: prevented LPS-induced actin cytoskeleton disassembly
effect on neutrophil adhesion to LTA-stimulated HAEC [10]: inhibit neutrophil adhesion; also recorded: reduced to near baseline values; also recorded: prevents LTA activation of endothelial cells

phosphatidylserine [PS]
inhibitory effect on severing activity of purified gelsolin [11]: had no effect; also recorded: no inhibitory effect; also recorded: have no effect
effect on absorbance of gelsolin [12]: had no effect
induction of pyrene excimer formation (emission 480 nm) [13]: had no effect
